Where a SMILES comes first, the peptide text is derived from it. [ ]: non-standard residue; d: D form. The star is where a group is joined. AMC = Cc1cc(=O)oc2cc(N*)ccc12; pGlu = O=C1CC[C@@H](C(=O)O)N1; Cbz = O=C(OCc1ccccc1)*

The test system of this assay is PrP^Sc formation in transiently transfected ScN2a cells. The format is cell-based, mouse.
On to `CN(C)c1ncnc2c1ncn2[C@@H]1O[C@H](CO)[C@@H](N)[C@H]1O` [Compound 16, Puromycin Aminonucleoside], for which the “Results (effect on transiently transfected ScN2a cells; inhibitory effect on PrP^Sc formation)” value is recorded as “Negative”.

In the case of “Leu-Asp-Val-Pro-Ser (LDVPS; printed: Leu-Asp-Val-Pro-Ser) [Compound 57]”, the “Results (effect on transiently transfected ScN2a cells; inhibitory effect on PrP^Sc formation)” value was “Negative”.

With `NC(=O)c1ccc(C(=O)O)cc1C(=O)O` [Compound 41, Trimellitic Acid Amide], the “Results (effect on transiently transfected ScN2a cells; inhibitory effect on PrP^Sc formation)” value was “Negative”.

Turning to `O=C(NC(CO)Cc1c[nH]cn1)c1ccccc1` [Compound 48, n-alphabenzoyl-L-Histidinol], the “Results (effect on transiently transfected ScN2a cells; inhibitory effect on PrP^Sc formation)” value is “Negative”.

As to `Nc1ccn([C@@H]2O[C@H](COP(=O)(O)O[C@H]3[C@@H](O)[C@H](n4cnc5c(N)ncnc54)O[C@@H]3CO)[C@@H](O)[C@H]2O)c(=O)n1` [Compound 27, Adenylyl (3′5′)Cytidine], the “Results (effect on transiently transfected ScN2a cells; inhibitory effect on PrP^Sc formation)” value was “Negative”.

Consider `O=P(O)(O)OC[C@H]1O[C@@H](n2cnc3c2ncn2ccnc32)[C@H](O)[C@@H]1O` [Compound 7, 1, N6-Ethenoadenosine-5′-Monophosphate], for which the “Results (effect on transiently transfected ScN2a cells; inhibitory effect on PrP^Sc formation)” value is on record as “Positive”.

For the compound `Nc1ccn([C@@H]2O[C@H](CO)[C@@H](OP(=O)(O)OC[C@H]3O[C@@H](n4cnc5c(=O)[nH]c(N)nc54)[C@H](O)[C@@H]3O)[C@H]2O)c(=O)n1` [Compound 10, Cytidylyl (3′5′) Guanosine], the “Results (effect on transiently transfected ScN2a cells; inhibitory effect on PrP^Sc formation)” value is “Negative”.

For `Nc1ncnc2c1ncn2[C@@H]1O[C@H](CO)[C@H]2OP(=O)([O-])O[C@H]21.[Na+]` [Compound 29, Adenosine 2′3′cyclic monophosphase sodium salt], the “Results (effect on transiently transfected ScN2a cells; inhibitory effect on PrP^Sc formation)” value is listed as “Negative”.

Take `CC(=O)O[C@@H]1[C@H](OC(C)=O)[C@@H](CO)O[C@H]1n1cnc2c(N)ncnc21` [Compound 32, 2′3′-Di-O-Acetyladenosine]: the “Results (effect on transiently transfected ScN2a cells; inhibitory effect on PrP^Sc formation)” value is reported as “Positive”.

Regarding `Cl.NC(N)=NC(=O)c1nc(Cl)c(N)nc1N` [Compound 69, Amiloride-HCI, reference compound], the “Results (effect on transiently transfected ScN2a cells; inhibitory effect on PrP^Sc formation)” value is “Negative”.

For the compound `NC(=O)NC(NC(N)=O)C(=O)O` [Compound 38, Allentoic Acid], the “Results (effect on transiently transfected ScN2a cells; inhibitory effect on PrP^Sc formation)” value is reported as “Negative”.

Turning to `Br.N=C(N)NCCC[C@H](NC(=O)OCc1ccccc1)C(=O)OCc1ccc([N+](=O)[O-])cc1` [Compound 54, Z-ARG-OBZL (P-NO2)HBR], the “Results (effect on transiently transfected ScN2a cells; inhibitory effect on PrP^Sc formation)” value is given as “Negative”.

On to “Hydroxyguanidino-purine Riboside [Compound 26]”, for which the “Results (effect on transiently transfected ScN2a cells; inhibitory effect on PrP^Sc formation)” value is “Negative”.

`NC(=NO)c1nc[nH]c1N` [Compound 37, Amino Imidazole Carobxamidoxime]: the “Results (effect on transiently transfected ScN2a cells; inhibitory effect on PrP^Sc formation)” value is recorded as “Negative”.

Turning to `N=C(N)c1ccc(Oc2ccc(-c3cc4ccc(C(=N)N)cc4[nH]3)cc2)cc1` [Compound 25, Amidinophenyl (6 Amidino-2-indolyl)Phenyl Ether], the “Results (effect on transiently transfected ScN2a cells; inhibitory effect on PrP^Sc formation)” value was “Negative”.

Regarding `N=C(N)c1ccc(-c2cc3ccc(C(=N)N)cc3[nH]2)cc1` [Compound 14, 4′,6-Diamidino-2 Phenylindole], the “Results (effect on transiently transfected ScN2a cells; inhibitory effect on PrP^Sc formation)” value is recorded as “Negative”.

For BOC-Val-Gly-Arg-βNa-AcOH [Compound 49], the “Results (effect on transiently transfected ScN2a cells; inhibitory effect on PrP^Sc formation)” value is “Negative”.

Take `Nc1ccc(Cc2ccc(N)cc2[N+](=O)[O-])cc1` [Compound 47, 3 mitro 4,4′ methylamediamiline]: the “Results (effect on transiently transfected ScN2a cells; inhibitory effect on PrP^Sc formation)” value is on record as “Negative”.

As for `[H]/N=C(/N)N[C@H]1[C@H](O)[C@@H](O)[C@H](O[C@@H]2O[C@@H](C)[C@](O)(C=O)[C@H]2O[C@@H]2O[C@@H](CO)[C@H](O)[C@@H](O)[C@@H]2NC)[C@@H](N/C(N)=N\[H])[C@@H]1O` [Compound 42, Streptomycin, reference compound], the “Results (effect on transiently transfected ScN2a cells; inhibitory effect on PrP^Sc formation)” value is “Negative”.

Take `NC[C@H]1O[C@H](O[C@H]2[C@H](O)[C@@H](O)[C@H](N)C[C@@H]2N)[C@H](N)[C@@H](O)[C@@H]1O` [Compound 9, Neamine]: the “Results (effect on transiently transfected ScN2a cells; inhibitory effect on PrP^Sc formation)” value is on record as “Negative”.

Regarding “Naphtha (Terbutoxycarbonyl)-L-Arginine [Compound 2]”, the “Results (effect on transiently transfected ScN2a cells; inhibitory effect on PrP^Sc formation)” value is “Negative”.

Take `Nc1nc2c(ncn2[C@@H]2O[C@H](COP(=O)(O)O[C@@H]3[C@H](O)[C@@H](CO)O[C@H]3n3cnc4c(=O)[nH]c(N)nc43)[C@@H](O)[C@H]2O)c(=O)[nH]1` [Compound 28, Guanylyl (2′5′)Guanosine]: the “Results (effect on transiently transfected ScN2a cells; inhibitory effect on PrP^Sc formation)” value is “Negative”.

As to `NCCC(O)C(=O)NC1CC(N)C(OC2OC(CN)C(O)[C@H](O)[C@@H]2N)[C@H](OC2O[C@H](CO)[C@@H](O)[C@@H]2O)[C@@H]1O.O=S(=O)(O)O.O=S(=O)(O)O` (stereo partly drawn) [Compound 15, Butirosin Disulfate Salt, reference compound], the “Results (effect on transiently transfected ScN2a cells; inhibitory effect on PrP^Sc formation)” value is “Negative”.

Turning to “PGlu-Gly-Arg-Phe Amide ([pGlu]GRF-NH2; SMILES N=C(N)NCCC[C@H](NC(=O)CNC(=O)[C@@H]1CCC(=O)N1)C(=O)N[C@@H](Cc1ccccc1)C(N)=O) [Compound 20]”, the “Results (effect on transiently transfected ScN2a cells; inhibitory effect on PrP^Sc formation)” value is “Negative”.

In the case of `COc1ccc(OC)c(NC(=N)N)c1.O=C(O)O` [Compound 51, 2,5 Dimethoxy-phenylguanidine Carbonate], the “Results (effect on transiently transfected ScN2a cells; inhibitory effect on PrP^Sc formation)” value is reported as “Negative”.

As to `OC[C@H]1O[C@@H](n2cnc3cncnc32)[C@H](O)[C@@H]1O` [Compound 18, Purine Riboside], the “Results (effect on transiently transfected ScN2a cells; inhibitory effect on PrP^Sc formation)” value is recorded as “Positive”.

For “2′-O-Anthramiloy Indenosine 3′5′-Cyclic Monophosphate [Compound 40]”, the “Results (effect on transiently transfected ScN2a cells; inhibitory effect on PrP^Sc formation)” value was “Negative”.

Consider `NCC[C@H](O)C(=O)N[C@@H]1C[C@H](N)[C@@H](O[C@H]2O[C@H](CN)[C@@H](O)[C@H](O)[C@H]2O)[C@H](O)[C@H]1O[C@H]1O[C@H](CO)[C@@H](O)[C@H](N)[C@H]1O` [Compound 39, Amikacin, reference compound], for which the “Results (effect on transiently transfected ScN2a cells; inhibitory effect on PrP^Sc formation)” value was “Negative”.

In the case of `CN1C(=O)C(CCCNC(=N)N)NC1=S.Cl` (racemic) [Compound 34, MTH-DL-Arginine HCI], the “Results (effect on transiently transfected ScN2a cells; inhibitory effect on PrP^Sc formation)” value was “Negative”.

For “6-Morpholino-5-Nitroimidazol [Compound 66]”, the “Results (effect on transiently transfected ScN2a cells; inhibitory effect on PrP^Sc formation)” value was “Negative”.

Turning to `O=P(O)(O)O[C@H]1[C@@H](O)[C@H](n2cnc3c(O)ncnc32)O[C@@H]1CO` [Compound 36, Inosine 3′-Monophosphate], the “Results (effect on transiently transfected ScN2a cells; inhibitory effect on PrP^Sc formation)” value was “Negative”.

Consider `Cn1c(=O)c2c(ncn2C)n(C)c1=O` [Compound 13, Caffeine, reference compound], for which the “Results (effect on transiently transfected ScN2a cells; inhibitory effect on PrP^Sc formation)” value is given as “Negative”.

For `CC(=O)O[C@@H]1[C@H](OC(C)=O)[C@@H](CO)O[C@H]1n1cnc2c(=O)[nH]c(N)nc21` [Compound 17, 2′3′-Di-O-Acetylguanoside], the “Results (effect on transiently transfected ScN2a cells; inhibitory effect on PrP^Sc formation)” value is reported as “Negative”.

In the case of `Cc1cc(=O)oc2cc(NC(=O)[C@H](CCCNC(=N)N)NC(=O)[C@H](Cc3ccccc3)NC(=O)OCc3ccccc3)ccc12.Cl` [Compound 53, Z-Phenyl-Arginyl-7-Amido-4-Methylcoumarin Hcl] (Cbz-Phe-Arg-{AMC}), the “Results (effect on transiently transfected ScN2a cells; inhibitory effect on PrP^Sc formation)” value is “Negative”.

On to “[Mei(O)4, D-Lyss, Pho9]-Fragment 4-9 [Compound 30]”, for which the “Results (effect on transiently transfected ScN2a cells; inhibitory effect on PrP^Sc formation)” value is “Negative”.

`CN[C@@H]1[C@@H](O)[C@@H](O[C@@H]2[C@@H](O)[C@H](O[C@H]3OC(CN)=CC[C@H]3N)[C@@H](N)C[C@H]2N)OC[C@]1(C)O` [Compound 23, Sisomycin, reference compound]: the “Results (effect on transiently transfected ScN2a cells; inhibitory effect on PrP^Sc formation)” value is reported as “Negative”.

Turning to `CCCCC(NC(=O)CCl)C(=O)O` (racemic) [Compound 6, Chloroacetyl-DL-Nortencine], the “Results (effect on transiently transfected ScN2a cells; inhibitory effect on PrP^Sc formation)” value was “Negative”.

`NC[C@H]1O[C@H](O[C@H]2[C@H](O[C@@H]3O[C@H](CO)[C@@H](O)[C@H]3O)[C@@H](O)[C@H](N)C[C@@H]2N)[C@H](N)[C@@H](O)[C@@H]1O` [Compound 21, Ribostamycin, reference compound]: the “Results (effect on transiently transfected ScN2a cells; inhibitory effect on PrP^Sc formation)” value is “Negative”.

Consider `Nc1ncnc2c1ncn2[C@H]1O[C@H](CO)[C@@H](O)[C@H]1O` [Compound 3, α-Adenosine], for which the “Results (effect on transiently transfected ScN2a cells; inhibitory effect on PrP^Sc formation)” value is listed as “Negative”.

Take `O=C(O)/C=C/c1c[nH]cn1` [Compound 1, Urocanic Acid]: the “Results (effect on transiently transfected ScN2a cells; inhibitory effect on PrP^Sc formation)” value was “Negative”.

Take [Glu]-TRH [Compound 55]: the “Results (effect on transiently transfected ScN2a cells; inhibitory effect on PrP^Sc formation)” value was “negative”.

As to H-Ala-Arg-Oh Acetate [Compound 5], the “Results (effect on transiently transfected ScN2a cells; inhibitory effect on PrP^Sc formation)” value is recorded as “Negative”.

On to `CC1(C)C(=O)NC(=O)N1SN1C(=O)NC(=O)C1(C)C` [Compound 44, 1,1, Thhiobis 5,5′ Dimethyl hydratoin], for which the “Results (effect on transiently transfected ScN2a cells; inhibitory effect on PrP^Sc formation)” value was “Negative”.

`O=C(O)C(Cc1cnc[nH]1)N1C(=O)c2ccccc2C1=O` (racemic) [Compound 45, N Phrhaloyl-DL-Histidine]: the “Results (effect on transiently transfected ScN2a cells; inhibitory effect on PrP^Sc formation)” value is “Negative”.

Turning to `NC[C@@H]1CC[C@@H](N)[C@@H](O[C@H]2[C@H](O)[C@@H](O[C@H]3O[C@H](CO)[C@@H](O)[C@H](N)[C@H]3O)[C@H](N)C[C@@H]2N)O1` [Compound 22, Dibekacin, reference compound], the “Results (effect on transiently transfected ScN2a cells; inhibitory effect on PrP^Sc formation)” value is reported as “Negative”.

The record behind these values is US6365359B1 (The Regents of the University of California, priority 1997, dated 2002).
